Data reported in patent US5633382A, “Histamine H3 -receptor antagonists and therapeutic uses thereof” (The University of Toledo, priority 1994, dated 1997).

Columns and labels:
[1] = Behavioral effects (sleeping) after i.p. injection in mice; type: in vivo, mouse
histamine H3 -receptor = experiment: Reversal of the soporific effect of (R)α-methylhistamine in mice; type: in vivo, mouse
Experimental: The overall strategy to show central nervous system antagonist activity was to challenge effects of the agonist (R)α-methylhistamine. Therefore, the first objective was to establish a dose response curve for behavioral effects of (R)α-methylhistamine. Male albino CF-1 mice weighing 20-30 g were used. Saline or (R)α-methylhistamine in saline was injected i.p. in a volume ≤0.4 ml. […] Animals were scored for the presence (1) or absence (0) of the behavior and the results were reported as the accumulated score for a 30 minute period (maximum score=9).
To assess the effects of antagonists, they were administered with the (R)α-methylhistamine in saline.

[2] = test system: H3 receptors in the cortex; experiment: Blood-brain barrier penetration by ex vivo binding of [3H]-Nα-methylhistamine to cortex homogenate; type: in vivo, rat
Experimental: Blood-brain barrier penetration in rats was assessed by an ex vivo binding procedure. Young adult male Long-Evans rats were injected i.p. with saline or H3 antagonists in saline. At various times after injection animals were sacrificed, the cortex was removed, homogenized in 50 mM Na/K-phosphate buffer, pH 7.4, and the binding of 1 nM [^3 H]-N^α -methylhistamine was measured using 400 μg protein of the homogenate. Nonspecific binding was accounted for by the inclusion of excess thioperamide in some samples. Under these conditions, the binding was approximately 90% specific.

[3] = Toxicity observed in testing to date; type: in vivo; conditions: all testing to date, even at high doses
[4] = test system: adenosine, excitory or inhibitory amino acid, dopamine, serotonin, or a broad range of petidergic receptors, or to ion channel proteins, peptide factor or …; experiment: NOVASCREEN receptor selectivity study, panel as a whole; type: binding; conditions: 10^-5 M
Bombesin = experiment: NOVASCREEN receptor selectivity assay; type: binding; conditions: 10^-5 M
Description: (§1) represent the average of duplicate tubes at each of the concentrations

Potassium channel = experiment: NOVASCREEN receptor selectivity assay; type: binding; conditions: 10^-5 M
Description: as §1

MK-801 = experiment: NOVASCREEN receptor selectivity assay; type: binding; conditions: 10^-5 M
Description: as §1

Substance P = experiment: NOVASCREEN receptor selectivity assay; type: binding; conditions: 10^-5 M
Description: as §1

Kainate = experiment: NOVASCREEN receptor selectivity assay; type: binding; conditions: 10^-5 M
Description: as §1

Serotonin 1 = experiment: NOVASCREEN receptor selectivity assay; type: binding; conditions: 10^-5 M
Description: as §1

Substance K = experiment: NOVASCREEN receptor selectivity assay; type: binding; conditions: 10^-5 M
Description: as §1

GABAB = experiment: NOVASCREEN receptor selectivity assay; type: binding; conditions: 10^-5 M
Description: as §1

CCK Central = experiment: NOVASCREEN receptor selectivity assay; type: binding; conditions: 10^-5 M
Description: as §1

Benzodiazephine = experiment: NOVASCREEN receptor selectivity assay; type: binding; conditions: 10^-5 M
Description: as §1

CCK Peripheral = experiment: NOVASCREEN receptor selectivity assay; type: binding; conditions: 10^-5 M
Description: as §1

Glycine (Inhibitory) = experiment: NOVASCREEN receptor selectivity assay; type: binding; conditions: 10^-5 M
Description: as §1

Dopamine 1 = experiment: NOVASCREEN receptor selectivity assay; type: binding; conditions: 10^-5 M
Description: as §1

Somatostatin = experiment: NOVASCREEN receptor selectivity assay; type: binding; conditions: 10^-5 M
Description: as §1

[5] = test system: Adenylate Cyclase (Forskolin); experiment: NOVASCREEN receptor selectivity assay; type: binding; conditions: 10^-5 M
Description: as §1

NMDA = experiment: NOVASCREEN receptor selectivity assay; type: binding; conditions: 10^-5 M
Description: as §1

Chloride channel = experiment: NOVASCREEN receptor selectivity assay; type: binding; conditions: 10^-5 M
Description: as §1

Angiotensin = experiment: NOVASCREEN receptor selectivity assay; type: binding; conditions: 10^-5 M
Description: as §1

Dopamine 2 = experiment: NOVASCREEN receptor selectivity assay; type: binding; conditions: 10^-5 M
Description: as §1

GABAA = experiment: NOVASCREEN receptor selectivity assay; type: binding; conditions: 10^-5 M
Description: as §1

VIP = experiment: NOVASCREEN receptor selectivity assay; type: binding; conditions: 10^-5 M
Description: as §1

Inositol Triphosphate = experiment: NOVASCREEN receptor selectivity assay; type: binding; conditions: 10^-5 M
Description: as §1

EGF = experiment: NOVASCREEN receptor selectivity assay; type: binding; conditions: 10^-5 M
Description: as §1

PCP = experiment: NOVASCREEN receptor selectivity assay; type: binding; conditions: 10^-5 M
Description: as §1

Glycine (excitatory) = experiment: NOVASCREEN receptor selectivity assay; type: binding; conditions: 10^-5 M
Description: as §1

[6] = test system: Protein Kinase C (Phorbol Ester); experiment: NOVASCREEN receptor selectivity assay; type: binding; conditions: 10^-5 M
Description: as §1

NPY = experiment: NOVASCREEN receptor selectivity assay; type: binding; conditions: 10^-5 M
Description: as §1

Adenosine = experiment: NOVASCREEN receptor selectivity assay; type: binding; conditions: 10^-5 M
Description: as §1

ANF (rat) = experiment: NOVASCREEN receptor selectivity assay; type: binding; conditions: 10^-5 M
Description: as §1

[7] = test system: Calcium channel (Nifedipine); experiment: NOVASCREEN receptor selectivity assay; type: binding; conditions: 10^-5 M
Description: as §1

[8] = test system: Quisqualate (Excitatory Amino Acids); experiment: NOVASCREEN receptor selectivity assay; type: binding; conditions: 10^-5 M
Description: as §1

Serotonin 2 = experiment: NOVASCREEN receptor selectivity assay; type: binding; conditions: 10^-5 M
Description: as §1

Arg-Vasopressin V1 = experiment: NOVASCREEN receptor selectivity assay; type: binding; conditions: 10^-5 M
Description: as §1

NGF = experiment: NOVASCREEN receptor selectivity assay; type: binding; conditions: 10^-5 M
Description: as §1

Neurotensin = experiment: NOVASCREEN receptor selectivity assay; type: binding; conditions: 10^-5 M
Description: as §1

[9] = test system: Calcium channel (w-Conotoxin); type: binding; conditions: 10^-5 M
histamine H3 receptors = conditions: cited from earlier work
[10] = animal toxicity studies or clinical usage; cited from earlier work
[11] = dogs, 162 mg/kg/day, repeated dose; cited from earlier work
[12] = peptic ulcer patients; cited from earlier work

C[C@@H](N)Cc1c[nH]cn1 [(R)α-methylhistamine]
sleeping ([1]; i.p. 15 to 35 mg/kg, one hour after injection, also evident at 30 minutes): dose-dependent (range of 15 to 35 mg/kg) increase in sleeping

O=C(CCCCC1CCCCC1)N1CCC(c2c[nH]cn2)CC1 [Compound 1, 4-(1-CYCLOHEXYLVALEROYL-4-PIPERIDYL) 1H-IMIDAZOLE]
inhibition of soporific effect of (R)α-methylhistamine (histamine H3 -receptor; agonist 25 mg/kg): inhibited the soporific effect | blood-brain barrier penetration ([2]; i.p. 50 and 70 mg/kg, one hour after injection): penetrates the blood-brain barrier | toxicity [3]: no toxicity | significant binding to other receptors [4]: no significant binding | Initial Percent Inhibition (Average; N = 2) (Bombesin): -5.5% | Initial Percent Inhibition (Average; N = 2) (Potassium channel): 7.7% | Initial Percent Inhibition (Average; N = 2) (MK-801): -8.6% | Initial Percent Inhibition (Average; N = 2) (Substance P): 20.0% | Initial Percent Inhibition (Average; N = 2) (Kainate): 42.1% | Initial Percent Inhibition (Average; N = 2) (Serotonin 1): -3.6% | Initial Percent Inhibition (Average; N = 2) (Substance K): 29.2% | Initial Percent Inhibition (Average; N = 2) (GABAB): 0.0% | Initial Percent Inhibition (Average; N = 2) (CCK Central): 18.6% | Initial Percent Inhibition (Average; N = 2) (Benzodiazephine): 2.7% | Initial Percent Inhibition (Average; N = 2) (CCK Peripheral): 6.9% | Initial Percent Inhibition (Average; N = 2) (Glycine (Inhibitory)): 17.4% | Initial Percent Inhibition (Average; N = 2) (Dopamine 1): 6.4% | Initial Percent Inhibition (Average; N = 2) (Somatostatin): 4.1% | Initial Percent Inhibition (Average; N = 2) [5]: 2.1% | Initial Percent Inhibition (Average; N = 2) (NMDA): -4.5% | Initial Percent Inhibition (Average; N = 2) (Chloride channel): -3.4% | Initial Percent Inhibition (Average; N = 2) (Angiotensin): 6.5% | Initial Percent Inhibition (Average; N = 2) (Dopamine 2): 3.5% | Initial Percent Inhibition (Average; N = 2) (GABAA): 0.6% | Initial Percent Inhibition (Average; N = 2) (VIP): 17.1% | Initial Percent Inhibition (Average; N = 2) (Inositol Triphosphate): 9.2% | Initial Percent Inhibition (Average; N = 2) (EGF): 18.1% | Initial Percent Inhibition (Average; N = 2) (PCP): 9.7% | Initial Percent Inhibition (Average; N = 2) (Glycine (excitatory)): 1.8% | Initial Percent Inhibition (Average; N = 2) [6]: 0.9% | Initial Percent Inhibition (Average; N = 2) (NPY): -8.7% | Initial Percent Inhibition (Average; N = 2) (Adenosine): -3.0% | Initial Percent Inhibition (Average; N = 2) (ANF (rat)): 0.1% | Initial Percent Inhibition (Average; N = 2) [7]: 8.1% | Initial Percent Inhibition (Average; N = 2) [8]: -1.8% | Initial Percent Inhibition (Average; N = 2) (Serotonin 2): 10.5% | Initial Percent Inhibition (Average; N = 2) (Arg-Vasopressin V1): 10.1% | Initial Percent Inhibition (Average; N = 2) (NGF): 17.1% | Initial Percent Inhibition (Average; N = 2) (Neurotensin): -10.5% | Initial Percent Inhibition (Average; N = 2) [9]: 1.9%

O=C(CCCCC1CCCCC1)N1CCC(c2c[nH]cn2)CC1 [Compound 2016]
reversal of soporific effect of R(-)-alphamethylhistamine (histamine H3 -receptor; both drugs administered peripherally): reverses the soporific effect

S=C(NC1CCCCC1)N1CCC(c2cnc[nH]2)CC1 [Thioperamide]
behavior ([1]; thioperamide alone, without agonist): very active, exhibiting normal behaviors | inhibition of soporific effect of (R)α-methylhistamine (histamine H3 -receptor; agonist 30 mg/kg): able to inhibit the soporific effect | binding of [3H]-Nα-methylhistamine to cortical H3 receptors / blood-brain barrier penetration ([2]; i.p. 2, 5, and 10 mg/kg, 15 min after injection): decreased the binding of [^3 H]-Nα-methylhistamine to H3 receptors in the cortex | dose required to inhibit histamine release from the brain (histamine H3 receptors; rats): relatively high doses are required in vivo | blood-brain-barrier penetration (histamine H3 receptors; suggested by Ganellin et al.): poor penetration through the blood-brain-barrier

CN/C(=N/CCSCc1nc[nH]c1C)NC#N [cimetidine]
granulocytopenia or other side effects [10]: did not cause granulocytopenia, or any other side effects

C/N=C(\S)NCCSCc1[nH]cnc1C [metiamide]
agranulocytosis [11]: incidences of agranulocytosis | granulocytopenia [12]: low incidence of granulocytopenia
